Converted amounts (≈) assume the structure as drawn. Where two headings read alike, the source gives them in different places. Peptide text beside a SMILES is read from it.
Columns and labels:
[1] = system: MSSA (Smith, ATCC # 19640); experiment: In vivo efficacy, MSSA infection; set-up: species or system S. aureus; conditions: formulation D, 60 min post-infection, end of eight day observation
K. pneumoniae = assay type: cell-based
P. aeruginosa = assay type: cell-based; conditions: for Peptide MIC values: agarose dilution
E. coli = assay type: cell-based; conditions: for Peptide MIC values: agarose dilution
E. faecalis = assay type: cell-based
A. calcoaceticus = assay type: cell-based
E. faecium = assay type: cell-based
S. marcescens = assay type: cell-based
S. aureus [2] = assay type: cell-based; conditions: for Peptide MIC values: agarose dilution
E. cloacae = assay type: cell-based; conditions: E. cloacae strain ECL007
S. epidermidis = assay type: cell-based
S. maltophilia = assay type: cell-based
S. aureus [3] = experiment: microbe, parasite or virus in culture; assay type: cell-based
bacterial isolates = experiment: microbe, parasite or virus in culture; assay type: cell-based; conditions: for FIC: peptide + Ciprofloxacin
[4] = system: microorganisms with acquired resistance; experiment: microbe, parasite or virus in culture; assay type: cell-based; conditions: for Peptide MIC Alone: Ciprofloxacin section
S. pneumoniae = experiment: Agarose dilution assay (MIC); assay type: cell-based; conditions: agarose dilution
[5] = system: inherently resistant microorganisms; experiment: microbe, parasite or virus in culture; assay type: cell-based

ILKKWWWPWRRK [MBI 11G4CN]
% Survival ([1]; 12 mg/kg ip): 0% | % Survival ([1]; 18 mg/kg ip): 0% | % Survival ([1]; 24 mg/kg ip): 20% | MIC (K. pneumoniae; K. pneumoniae strain KP001): >128 µg/mL | MIC (P. aeruginosa; P. aeruginosa strain PA004): >128 µg/mL | MIC (E. coli; E. coli strain ECO005): 32 µg/mL | MIC (E. faecalis; E. faecalis strain EFS002): 32 µg/mL | MIC (A. calcoaceticus; A. calcoaceticus strain AC002): 4 µg/mL | MIC (E. faecium; E. faecium strain EFM003): 1 µg/mL | MIC (S. marcescens; S. marcescens strain SMS003): >128 µg/mL | MIC (S. aureus [2]; S. aureus strain SA004): 1 µg/mL | MIC (E. cloacae): >128 µg/mL | MIC (S. epidermidis; S. epidermidis strain SE010): 2 µg/mL | MIC (S. maltophilia; S. maltophilia strain SMA002): 64 µg/mL

CC[C@H](C)[C@H](NC(=O)[C@H](CC(C)C)NC(=O)[C@H](C)NC(=O)[C@@H]1CCCN1C(=O)[C@H](CC(C)C)NC(=O)[C@H](C)NC(=O)[C@@H](NC(=O)[C@@H](NC(=O)[C@@H](NC(=O)[C@@H](NC(=O)[C@H](CCCCN)NC(=O)[C@H](CCCCN)NC(=O)[C@H](CC(C)C)NC(=O)[C@@H](NC(=O)[C@H](CCCCN)NC(=O)[C@@H](NC(=O)[C@H](CC(C)C)NC(=O)[C@H](CC(N)=O)NC(=O)[C@H](CCCCN)NC(=O)[C@@H](NC(=O)[C@H](Cc1ccccc1)NC(=O)[C@H](CO)NC(=O)[C@H](CCCCN)NC(=O)[C@H](Cc1c[nH]c2ccccc12)NC(=O)[C@@H](N)CCCCN)[C@@H](C)CC)[C@@H](C)O)C(C)C)C(C)C)C(C)C)[C@@H](C)O)[C@@H](C)O)C(=O)N[C@@H](CO)C(=O)O [MBI 29A2] (H-KWKSFIKNLTKVLKKVVTTALPALIS-OH; N-terminus and C-terminus assumed)
Ciprofloxacin MIC + Peptide (S. aureus [3]; S. aureus SA10): 0.5 µg/mL | Peptide MIC + Ciprofloxacin (S. aureus [3]; S. aureus SA10): 2 µg/mL | Ciprofloxacin MIC + Peptide (S. aureus [3]; S. aureus SA25): 0.5 µg/mL | Peptide MIC + Ciprofloxacin (S. aureus [3]; S. aureus SA25): 1 µg/mL | Ciprofloxacin MIC + Peptide (bacterial isolates; P. aeruginosa PA24): 16 µg/mL | Peptide MIC + Ciprofloxacin (bacterial isolates; P. aeruginosa PA24): 8 µg/mL | Ciprofloxacin MIC + Peptide (bacterial isolates; S. aureus SA10): 0.5 µg/mL | Peptide MIC + Ciprofloxacin (bacterial isolates; S. aureus SA10): 2 µg/mL | Ciprofloxacin MIC + Peptide (bacterial isolates; S. aureus SA93): 8 µg/mL | Peptide MIC + Ciprofloxacin (bacterial isolates; S. aureus SA93): 0.5 µg/mL | FIC (bacterial isolates; P. aeruginosa PA24): 0.63 | FIC (bacterial isolates; S. aureus SA10): 0.52 | FIC (bacterial isolates; S. aureus SA93): 0.50 | Ciprofloxacin MIC + Peptide ([4]; P. aeruginosa PA41): 2 µg/mL | Peptide MIC + Ciprofloxacin ([4]; P. aeruginosa PA41): 4 µg/mL | Peptide MIC Alone ([4]; P. aeruginosa PA41): 8 µg/mL | Ciprofloxacin MIC + Peptide ([4]; P. aeruginosa PA77): 1 µg/mL | Peptide MIC + Ciprofloxacin ([4]; P. aeruginosa PA77): 8 µg/mL | Peptide MIC Alone ([4]; P. aeruginosa PA77): 16 µg/mL

ILRRWPWWPWRRK [MBI 11B1CN]
% Survival ([1]; 12 mg/kg ip): 0% | % Survival ([1]; 18 mg/kg ip): 30% | % Survival ([1]; 24 mg/kg ip): 90% | MIC (K. pneumoniae; K. pneumoniae strain KP002): 64 µg/mL | MIC (P. aeruginosa; P. aeruginosa strain PA005): >128 µg/mL | MIC (E. coli; E. coli strain ECO003): 8 µg/mL | MIC (E. faecalis; E. faecalis strain EFS004): 8 µg/mL | MIC (A. calcoaceticus; A. calcoaceticus strain AC001): 32 µg/mL | MIC (E. faecium; E. faecium strain EFM002): 2 µg/mL | MIC (S. marcescens; S. marcescens strain SMS004): >128 µg/mL | MIC (S. aureus [2]; S. aureus strain SA005): 2 µg/mL | MIC (E. cloacae): >128 µg/mL | MIC (S. epidermidis; S. epidermidis strain SE001): 2 µg/mL | MIC (S. maltophilia; S. maltophilia strain SMA001): 64 µg/mL

ILWPWWPWRRK [MBI 11B8CN]
% Survival ([1]; 12 mg/kg ip): 0% | % Survival ([1]; 18 mg/kg ip): 10% | MIC (K. pneumoniae; K. pneumoniae strain KP001): >128 µg/mL | MIC (P. aeruginosa; P. aeruginosa strain PA005): >128 µg/mL | Peptide MIC values (P. aeruginosa; P. aeruginosa ATCC 27853): >128 µg/mL | Peptide MIC values (P. aeruginosa; P. aeruginosa NCTC 10662): >128 µg/mL | MIC (E. coli; E. coli strain ECO002): 16 µg/mL | Peptide MIC values (E. coli; E. coli ATCC 25922): 32 µg/mL | Peptide MIC values (E. coli; E. coli NCTC 10418): 4 µg/mL | MIC (E. faecalis; E. faecalis strain EFS002): 32 µg/mL | MIC (A. calcoaceticus; A. calcoaceticus strain AC001): >128 µg/mL | MIC (E. faecium; E. faecium strain EFM001): 16 µg/mL | Peptide MIC values (E. faecium; agarose dilution): 8 µg/mL | MIC (S. marcescens; S. marcescens strain SMS003): >128 µg/mL | Peptide MIC values (S. marcescens; agarose dilution, S. marcescens SM82): >128 µg/mL | MIC (S. aureus [2]; S. aureus strain SA009): 4 µg/mL | Peptide MIC values (S. aureus [2]; S. aureus MRSA9): 2 µg/mL | Peptide MIC values (S. aureus [2]; S. aureus MRSA13): 32 µg/mL | Peptide MIC values (S. aureus [2]; S. aureus MRSA17): 4 µg/mL | MIC (E. cloacae): >128 µg/mL | Peptide MIC values (S. pneumoniae; S. pneumoniae 406LE8): >128 µg/mL | Peptide MIC values (S. pneumoniae; S. pneumoniae 60120): >128 µg/mL | Peptide MIC values (S. pneumoniae; S. pneumoniae ATCC 49619): 128 µg/mL | MIC (S. epidermidis; S. epidermidis strain SE002): 4 µg/mL | MIC (S. maltophilia; S. maltophilia strain SMA002): 128 µg/mL

C/C(=C\C(=O)OCCCCCCCCC(=O)O)C[C@@H]1OC[C@H](C[C@@H]2O[C@H]2[C@@H](C)[C@H](C)O)[C@@H](O)[C@H]1O [Mupirocin]
MIC (S. aureus [3]; Staphylococcus aureus, S. aureus SBSA4, read-out: Mupirocin MIC Alone): > 100 µg/mL | MIC (bacterial isolates; Escherichia coli, read-out: Mupirocin MIC Alone, E. coli ECO1): > 100 µg/mL | MIC (bacterial isolates; Escherichia coli, read-out: Mupirocin MIC Alone, E. coli ECO2): 100 µg/mL (≈ 200 µM) | MIC (bacterial isolates; Escherichia coli, read-out: Mupirocin MIC Alone, E. coli ECO3): 100 µg/mL (≈ 200 µM) | MIC (bacterial isolates; Escherichia coli, read-out: Mupirocin MIC Alone, E. coli ECO5): 100 µg/mL (≈ 200 µM) | MIC (bacterial isolates; Escherichia coli, read-out: Mupirocin MIC Alone, E. coli SBECO1): 100 µg/mL (≈ 200 µM) | MIC (bacterial isolates; Escherichia coli, read-out: Mupirocin MIC Alone, E. coli SBECO2): > 100 µg/mL | MIC (bacterial isolates; Pseudomonas aeruginosa, read-out: Mupirocin MIC Alone, P. aeruginosa PA2): > 100 µg/mL | MIC (bacterial isolates; Pseudomonas aeruginosa, read-out: Mupirocin MIC Alone, P. aeruginosa PA3): > 100 µg/mL | MIC (bacterial isolates; Pseudomonas aeruginosa, read-out: Mupirocin MIC Alone, P. aeruginosa PA4): > 100 µg/mL | MIC (bacterial isolates; Pseudomonas aeruginosa, read-out: Mupirocin MIC Alone, P. aeruginosa SBPA1): > 100 µg/mL | MIC (bacterial isolates; Serratia marcescens, read-out: Mupirocin MIC Alone, S. marcescens SBSM1): > 100 µg/mL | MIC (bacterial isolates; Serratia marcescens, read-out: Mupirocin MIC Alone, S. marcescens SBSM2): > 100 µg/mL | MIC (bacterial isolates; Staphylococcus aureus, read-out: Mupirocin MIC Alone, S. aureus SBSA3): 100 µg/mL (≈ 200 µM) | MIC (bacterial isolates; Staphylococcus aureus, read-out: Mupirocin MIC Alone, S. aureus SBSA4): > 100 µg/mL | MIC comb. (antibiotic agent) ([4]; E. faecium, with MBI 11CN): 0.1 µg/mL (≈ 0.2 µM) | MIC comb. (antibiotic agent) ([4]; E. faecium, with MBI 11G13CN): 0.1 µg/mL (≈ 0.2 µM) | MIC ([4]; Enterococcus faecium, read-out: MIC alone (antibiotic agent), E. faecium): 100 µg/mL (≈ 200 µM) | MIC comb. (antibiotic agent) ([4]; S. aureus, with MBI 11A1CN): 1 µg/mL (≈ 2 µM) | MIC comb. (antibiotic agent) ([4]; S. aureus, with MBI 11CN): 0.1 µg/mL (≈ 0.2 µM) | MIC comb. (antibiotic agent) ([4]; S. aureus, with MBI 11D18CN): 0.1 µg/mL (≈ 0.2 µM) | MIC comb. (antibiotic agent) ([4]; S. aureus, with MBI 11F1CN): 3 µg/mL (≈ 5.99 µM) | MIC comb. (antibiotic agent) ([4]; S. aureus, with MBI 21A1): 0.1 µg/mL (≈ 0.2 µM) | MIC comb. (antibiotic agent) ([4]; S. aureus, with MBI 21A2): 0.1 µg/mL (≈ 0.2 µM) | MIC comb. (antibiotic agent) ([4]; S. aureus, with MBI 21A10): 0.3 µg/mL (≈ 0.599 µM) | MIC comb. (antibiotic agent) ([4]; S. aureus, with MBI 26): 0.1 µg/mL (≈ 0.2 µM) | MIC comb. (antibiotic agent) ([4]; S. aureus, with MBI 29A3): 0.1 µg/mL (≈ 0.2 µM) | MIC ([4]; Staphylococcus aureus, read-out: MIC alone (antibiotic agent), S. aureus): > 100 µg/mL | MIC ([5]; Escherichia coli, read-out: Mupirocin MIC Alone, E. coli): 100 µg/mL (≈ 200 µM) | MIC ([5]; Pseudomonas aeruginosa, read-out: Mupirocin MIC + Peptide, P. aeruginosa, peptide MBI 28): 3 µg/mL | MIC ([5]; Pseudomonas aeruginosa, read-out: Mupirocin MIC + Peptide, P. aeruginosa, peptide MBI 29A3): 0.1 µg/mL | MIC ([5]; Pseudomonas aeruginosa, read-out: Mupirocin MIC Alone, P. aeruginosa): > 100 µg/mL | MIC ([5]; read-out: Mupirocin MIC + Peptide, E. coli, peptide MBI 11B4CN): 3 µg/mL | MIC ([5]; read-out: Mupirocin MIC + Peptide, E. coli, peptide MBI 11D18CN): 1 µg/mL | MIC ([5]; read-out: Mupirocin MIC + Peptide, E. coli, peptide MBI 21A1): 3 µg/mL | MIC ([5]; read-out: Mupirocin MIC + Peptide, E. coli, peptide MBI 26): 3 µg/mL | MIC ([5]; read-out: Mupirocin MIC + Peptide, E. coli, peptide MBI 28): 0.1 µg/mL

Source: patent US20020035061A1, “COMPOSITIONS AND METHODS FOR TREATING INFECTIONS USING CATIONIC PEPTIDES ALONE OR IN COMBINATION WITH ANTIBIOTICS” (priority 1996, published 2002)
